Experimental findings from PubChem BioAssay AID330 (DTP/NCI, 2004) are described below.

This assay has as its system P388 leukemia ip, CD2F1 mice, survival T/C. In words: NCI In Vivo Anticancer Drug Screen. Data for tumor model P388 Leukemia (intraperitoneal) in CD2F1 (CDF1) mice. The following applies: endpoint: median survival time, higher = longer survival. The gist of the method:
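Mice carrying the transplanted tumor received test compound or vehicle. Survival was recorded in each group, and the value is the treated-group measurement divided by that of the vehicle-treated control group.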

The mark [1] stands for this setting: dose: 12.5 mg/kg/injection, schedule: Q01DX009 (ip), vehicle: saline.
The mark [2] stands for this setting: dose: 25.0 mg/kg/injection, schedule: Q01DX009 (ip), vehicle: saline.
Setting [3] is: dose: 50.0 mg/kg/injection, schedule: Q01DX009 (ip), vehicle: saline.
[4] abbreviates: dose: 200.0 mg/kg/injection, schedule: Q01DX009 (ip), vehicle: saline.
Setting [5] is: dose: 50.0 mg/kg/injection, schedule: Q01DX005 (ip), vehicle: saline with Tween-80.
[6] abbreviates: dose: 100.0 mg/kg/injection, schedule: Q01DX005 (ip), vehicle: saline with Tween-80.
The mark [7] stands for this setting: dose: 200.0 mg/kg/injection, schedule: Q01DX005 (ip), vehicle: saline with Tween-80.

Each structure is given as a SMILES string. “And” between values parts separate entries of the source, which are not always exact repeats. Identical values can stand only once. Toxic doses and inconclusive results are not listed.

Consider `COc1cccc2c1C(=O)c1c(O)c3c(c(O)c1C2=O)CC(O)(C(C)=O)CC3OC1CC(N)C(O)C(C)O1` (centres undefined), for which the T/C was 150 % of control and 163 % of control (dose: 0.63 mg/kg/injection, schedule: Q01DX009 (ip), vehicle: water); 158 % of control [middle of 7 runs] (dose: 1.25 mg/kg/injection, schedule: Q01DX009 (ip), vehicle: water); 103 % of control (dose: 1.5 mg/kg/injection, schedule: Q01DX009 (ip), vehicle: water); 160 % of control [middle of 16 runs] (dose: 2.5 mg/kg/injection, schedule: Q01DX009 (ip), vehicle: water); 102 % of control (dose: 2.9 mg/kg/injection, schedule: Q01DX009 (ip), vehicle: saline); 110 % of control (dose: 3.0 mg/kg/injection, schedule: Q01DX009 (ip), vehicle: water). In addition, the T/C reads like this: (dose: 3.13 mg/kg/injection, schedule: Q01DX009 (ip), vehicle: water) 155 % of control; (dose: 5.0 mg/kg/injection, schedule: Q01DX009 (ip), vehicle: water) 167 % of control [middle of 17 runs]; (dose: 6.0 mg/kg/injection, schedule: Q01DX009 (ip), vehicle: water) 110 % of control; (dose: 6.25 mg/kg/injection, schedule: Q01DX009 (ip), vehicle: water) 171 % of control; (dose: 8.0 mg/kg/injection, schedule: Q04DX003 (ip), vehicle: water) 114 % of control; (dose: 10.0 mg/kg/injection, schedule: Q01DX009 (ip), vehicle: water) 178 % of control [middle of 14 runs]. The T/C by setting is: (dose: 11.0 mg/kg/injection, schedule: Q04DX003 (ip), vehicle: water) 103 % of control and 109 % of control; (dose: 12.0 mg/kg/injection, schedule: Q01DX009 (ip), vehicle: water) 116 % of control; (dose: 12.5 mg/kg/injection, schedule: Q01DX009 (ip), vehicle: water) 174 % of control; (dose: 15.0 mg/kg/injection, schedule: Q04DX003 (ip), vehicle: water) 121 % of control; (dose: 16.0 mg/kg/injection, schedule: Q04DX003 (ip), vehicle: water) 110 % of control and 122 % of control; (dose: 20.0 mg/kg/injection, schedule: Q01DX009 (ip), vehicle: other) 155 % of control. Also, the T/C was 97 % of control and 118 % of control (dose: 21.9 mg/kg/injection, schedule: Q04DX003 (ip), vehicle: water); 188 % of control (dose: 23.4 mg/kg/injection, schedule: Q01DX009 (ip), vehicle: saline); 108 % of control (dose: 24.0 mg/kg/injection, schedule: Q01DX009 (ip), vehicle: water); 197 % of control (dose: 25.0 mg/kg/injection, schedule: Q01DX009 (ip), vehicle: water); 104 % of control (dose: 40.0 mg/kg/injection, schedule: Q01DX009 (ip), vehicle: water); 106 % of control (dose: 43.8 mg/kg/injection, schedule: Q04DX003 (ip), vehicle: water). The T/C is, setting by setting: (dose: 64.0 mg/kg/injection, schedule: Q04DX003 (ip), vehicle: water) 110 % of control; (dose: 87.5 mg/kg/injection, schedule: Q04DX003 (ip), vehicle: water) 157 % of control; (dose: 88.0 mg/kg/injection, schedule: Q04DX003 (ip), vehicle: water) 182 % of control; (dose: 120.0 mg/kg/injection, schedule: Q04DX003 (ip), vehicle: water) 160 % of control; (dose: 128.0 mg/kg/injection, schedule: Q04DX003 (ip), vehicle: water) 168 % of control and 172 % of control; (dose: 175.0 mg/kg/injection, schedule: Q04DX003 (ip), vehicle: water) 182 % of control. Besides, the T/C was 101 % of control (dose: 240.0 mg/kg/injection, schedule: Q04DX003 (ip), vehicle: water); 177 % of control (dose: 256.0 mg/kg/injection, schedule: Q04DX003 (ip), vehicle: water); 97 % of control (dose: 350.0 mg/kg/injection, schedule: Q04DX003 (ip), vehicle: water).
Consider `CC(=O)NC1CC(C)(C)NC(C)(C)C1`, for which the T/C runs as follows: under setting [1], 100 % of control; under setting [2], 96 % of control; under setting [3], 114 % of control and 88 % of control; under setting [4], 95 % of control.
With `O=C1c2ccsc2CN2C(=O)CCC12` (centres undefined), the T/C (dose: 60.0 mg/kg/injection, schedule: Q01DX005 (ip), vehicle: saline with Tween-80) is 95 % of control; the T/C (dose: 120.0 mg/kg/injection, schedule: Q01DX005 (ip), vehicle: saline with Tween-80) is 103 % of control; the T/C (dose: 240.0 mg/kg/injection, schedule: Q01DX005 (ip), vehicle: saline with Tween-80) was 110 % of control.
In the case of `Cc1c(NC(=S)Nc2ccccc2C(F)(F)F)c(=O)n(-c2ccccc2)n1C`, the T/C is, setting by setting: (dose: 50.0 mg/kg/injection, schedule: Q01DX009 (ip), vehicle: Klucel (hydroxypropylcellulose) (HPC)) 92 % of control; (dose: 100.0 mg/kg/injection, schedule: Q01DX009 (ip), vehicle: Klucel (hydroxypropylcellulose) (HPC)) 96 % of control; (dose: 200.0 mg/kg/injection, schedule: Q01DX009 (ip), vehicle: Klucel (hydroxypropylcellulose) (HPC)) 100 % of control.
For `Cc1cc2nc(CC(=O)c3cccc([N+](=O)[O-])c3)c(=O)[nH]c2cc1C`, the T/C is 95 % of control (dose: 7.5 mg/kg/injection, schedule: Q01DX005 (ip), vehicle: saline with Tween-80); 96 % of control (dose: 15.0 mg/kg/injection, schedule: Q01DX005 (ip), vehicle: saline with Tween-80); 91 % of control (dose: 30.0 mg/kg/injection, schedule: Q01DX005 (ip), vehicle: saline with Tween-80).
Consider `CCCCN(C)c1ncnc2[nH]ncc12`, for which the T/C (dose: 100.0 mg/kg/injection, schedule: Q04DX003 (ip), vehicle: saline) was 100 % of control.
In the case of `N#CC1CCCC(C#N)N1Cc1ccccc1` (centres undefined), the T/C is 110 % of control (dose: 60.0 mg/kg/injection, schedule: Q01DX005 (ip), vehicle: Klucel (hydroxypropylcellulose) (HPC)) and 106 % of control (dose: 120.0 mg/kg/injection, schedule: Q01DX005 (ip), vehicle: Klucel (hydroxypropylcellulose) (HPC)).
`Oc1[nH]c2ccccc2c1N=NC(=S)SCc1ccccc1`: the T/C runs as follows: under setting [1], 89 % of control; under setting [2], 87 % of control; under setting [3], 90 % of control.
Consider `COc1ccc(CNSC(c2ccccc2)(c2ccccc2)c2ccccc2)cc1`, for which the T/C is 98 % of control under setting [5], 101 % of control under setting [6] and 97 % of control under setting [7].
As to `O=C(CCl)NC(Cc1ccccc1F)C(=O)O` (centres undefined), the T/C is 106 % of control under setting [3]; 102 % of control (dose: 100.0 mg/kg/injection, schedule: Q01DX009 (ip), vehicle: saline); 101 % of control under setting [4].
`CC(=O)N(O)C(C)=O`: the T/C is 100 % of control (dose: 50.0 mg/kg/injection, schedule: Q01DX005 (ip), vehicle: saline); 104 % of control (dose: 100.0 mg/kg/injection, schedule: Q01DX005 (ip), vehicle: saline); 107 % of control (dose: 200.0 mg/kg/injection, schedule: Q01DX005 (ip), vehicle: saline).
On to `COc1ccc(C2(C)C(C#N)(C#N)C2(C#N)C#N)cc1`, for which the T/C is 103 % of control (dose: 18.75 mg/kg/injection, schedule: Q01DX009 (ip), vehicle: saline); 100 % of control (dose: 37.5 mg/kg/injection, schedule: Q01DX009 (ip), vehicle: saline); 116 % of control (dose: 75.0 mg/kg/injection, schedule: Q01DX009 (ip), vehicle: saline); 111 % of control (dose: 150.0 mg/kg/injection, schedule: Q01DX009 (ip), vehicle: saline).
In the case of `CC(C)CC(C)N(C(=S)S)C(C)CC(C)C.[Zn+2]` (centres undefined), the T/C under setting [5] is 100 % of control, the T/C under setting [6] was 104 % of control and the T/C under setting [7] is 100 % of control.
With `COc1cc(NC(C)CCCNC(C)C)c2ncccc2c1OC` (centres undefined), the T/C by setting is: (dose: 6.25 mg/kg/injection, schedule: Q01DX005 (ip), vehicle: saline) 103 % of control; (dose: 12.5 mg/kg/injection, schedule: Q01DX005 (ip), vehicle: saline) 93 % of control; (dose: 25.0 mg/kg/injection, schedule: Q01DX005 (ip), vehicle: saline) 93 % of control.
Take `Nc1nc(CON2C(=O)c3ccccc3C2=O)cs1`: the T/C by setting is: (dose: 50.0 mg/kg/injection, schedule: Q01DX005 (ip), vehicle: Klucel (hydroxypropylcellulose) (HPC)) 97 % of control; (dose: 100.0 mg/kg/injection, schedule: Q01DX005 (ip), vehicle: Klucel (hydroxypropylcellulose) (HPC)) 99 % of control; (dose: 200.0 mg/kg/injection, schedule: Q01DX005 (ip), vehicle: Klucel (hydroxypropylcellulose) (HPC)) 103 % of control.
